Results: PubChem BioAssay (NCI)
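Exposure lasted 48 hours, with cells grown in 96-well plates and compounds tested at five concentrations. TGI is the concentration that stops growth completely.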

Assays:
Test in all cases: NCI tumour cell line growth inhibition, 48 h
OVCAR-3 ovarian = test system: OVCAR-3 ovarian
A498 renal = test system: A498 renal
MDA-N = test system: MDA-N
KM12 colon = test system: KM12 colon
SN12C renal = test system: SN12C renal
786-0 renal = test system: 786-0 renal
NCI-H23 lung = test system: NCI-H23 lung
HT29 colon = test system: HT29 colon
SF-295 CNS = test system: SF-295 CNS
UACC-257 melanoma = test system: UACC-257 melanoma
TK-10 renal = test system: TK-10 renal
OVCAR-8 ovarian = test system: OVCAR-8 ovarian
NCI/ADR-RES ovarian = test system: NCI/ADR-RES ovarian
SNB-19 CNS = test system: SNB-19 CNS
MCF7 breast = test system: MCF7 breast
K-562 leukemia = test system: K-562 leukemia
OVCAR-5 ovarian = test system: OVCAR-5 ovarian
LOX IMVI melanoma = test system: LOX IMVI melanoma
A549 NSCLC = test system: A549 NSCLC
HCC-2998 colon = test system: HCC-2998 colon
MOLT-4 leukemia = test system: MOLT-4 leukemia
SK-MEL-28 melanoma = test system: SK-MEL-28 melanoma
NCI-H226 lung = test system: NCI-H226 lung
CAKI-1 renal = test system: CAKI-1 renal
SW-620 colon = test system: SW-620 colon
NCI-H522 lung = test system: NCI-H522 lung
DU-145 prostate = test system: DU-145 prostate
EKVX NSCLC = test system: EKVX NSCLC
M14 melanoma = test system: M14 melanoma
MDA-MB-231 breast = test system: MDA-MB-231 breast
MDA-MB-435 = test system: MDA-MB-435
HS 578T breast = test system: HS 578T breast
HCT-15 colon = test system: HCT-15 colon
RXF 393 renal = test system: RXF 393 renal
T-47D breast = test system: T-47D breast
SR leukemia = test system: SR leukemia
SF-268 CNS = test system: SF-268 CNS
SK-MEL-5 melanoma = test system: SK-MEL-5 melanoma
MALME-3M melanoma = test system: MALME-3M melanoma
NCI-H460 lung = test system: NCI-H460 lung
HL-60(TB) leukemia = test system: HL-60(TB) leukemia
SF-539 CNS = test system: SF-539 CNS
HOP-62 NSCLC = test system: HOP-62 NSCLC
OVCAR-4 ovarian = test system: OVCAR-4 ovarian
HOP-92 NSCLC = test system: HOP-92 NSCLC
U251 CNS = test system: U251 CNS
HCT-116 colon = test system: HCT-116 colon
UO-31 renal = test system: UO-31 renal
PC-3 prostate = test system: PC-3 prostate
RPMI-8226 leukemia = test system: RPMI-8226 leukemia
IGROV1 ovarian = test system: IGROV1 ovarian
CCRF-CEM leukemia = test system: CCRF-CEM leukemia
ACHN renal = test system: ACHN renal
COLO 205 colon = test system: COLO 205 colon
SNB-75 CNS = test system: SNB-75 CNS

## CN(C)Cc1cc(C(=O)/C=C/c2ccc(Cl)cc2Cl)cc(CN(C)C)c1O
OVCAR-3 ovarian
  TGI: 11.6 µM
A498 renal
  TGI: 8.49 µM
MDA-N
  TGI: 5.92 µM
KM12 colon
  TGI: 4.51 µM
SN12C renal
  TGI: 6.96 µM
786-0 renal
  TGI: 13.5 µM
NCI-H23 lung
  TGI: 22.6 µM
HT29 colon
  TGI: 6.91 µM
SF-295 CNS
  TGI: 14 µM
UACC-257 melanoma
  TGI: 17.6 µM
TK-10 renal
  TGI: 24.2 µM
OVCAR-8 ovarian
  TGI: 11 µM
NCI/ADR-RES ovarian
  TGI: 5.7 µM
SNB-19 CNS
  TGI: 19.9 µM
MCF7 breast
  TGI: 15.3 µM
K-562 leukemia
  TGI: 5.29 µM
OVCAR-5 ovarian
  TGI: 28.7 µM
LOX IMVI melanoma
  TGI: 2.49 µM
A549 NSCLC
  TGI: 11.9 µM
HCC-2998 colon
  TGI: 20.2 µM
MOLT-4 leukemia
  TGI: 4.71 µM
SK-MEL-28 melanoma
  TGI: 19.1 µM
NCI-H226 lung
  TGI: 24 µM
CAKI-1 renal
  TGI: 5.61 µM
SW-620 colon
  TGI: 11.3 µM
NCI-H522 lung
  TGI: 7.29 µM
DU-145 prostate
  TGI: 16.7 µM
EKVX NSCLC
  TGI: 19.7 µM
M14 melanoma
  TGI: 13.3 µM
MDA-MB-231 breast
  TGI: 6.53 µM
MDA-MB-435
  TGI: 17.1 µM
HS 578T breast
  TGI: 15.8 µM
HCT-15 colon
  TGI: 14.6 µM
RXF 393 renal
  TGI: 10.7 µM
T-47D breast
  TGI: 22.1 µM
SR leukemia
  TGI: > 100 µM
SF-268 CNS
  TGI: 20 µM
SK-MEL-5 melanoma
  TGI: 5.66 µM
MALME-3M melanoma
  TGI: 23.5 µM
NCI-H460 lung
  TGI: 4.4 µM
HL-60(TB) leukemia
  TGI: 8.67 µM
SF-539 CNS
  TGI: 17 µM
HOP-62 NSCLC
  TGI: 12.9 µM
OVCAR-4 ovarian
  TGI: 13.1 µM
HOP-92 NSCLC
  TGI: 8.55 µM
U251 CNS
  TGI: 15.7 µM
HCT-116 colon
  TGI: 11.7 µM
UO-31 renal
  TGI: 6.01 µM
PC-3 prostate
  TGI: 6.19 µM
RPMI-8226 leukemia
  TGI: > 100 µM
IGROV1 ovarian
  TGI: 10.4 µM
CCRF-CEM leukemia
  TGI: 8.88 µM
ACHN renal
  TGI: 10.9 µM
COLO 205 colon
  TGI: 2.76 µM
SNB-75 CNS
  TGI: 16.7 µM
